Read-outs that look alike come from different tables or passages of the source.
Key:
PI3Kδ = biological target: T1, PI3Kδ (Homo sapiens, UniProt O00329); test: PI3 Kinase Activity/Inhibitor Assay Kit; type: biochemical; settings: mean of two independent replicates ± SD
T1 construct: purchased Millipore Corporation 17-493 (assay kit)
Method: In vitro PI3 kinases inhibitory activity assay
All buffers, working standards and samples were prepared.
A total of 5 μl/well 5X kinase reaction buffer was added following the addition of the substrate, then distilled water was added to fill up to 25 μl. After incubation for 1 h at room temperature, 25 μl of biotinylated PIP3/EDTA working solution was added to all wells except the buffer control. Instead, 25 μl tris-buffered saline (TBS) was added to the buffer control wells. A general receptor phosphoinsitides -1 working solution was added to all wells then, was incubated for 1 h at room temperature. After incubation, all wells were washed with 200 μl 1X TBS -Tween followed by addition of 50 μl (horseradish peroxide as econjugated streptavidin) SA -HRP then were incubated for 1 h at room temperature. All wells were washed using 100 μl 1X TBS -Tween and TBS followed by addition of 100 μl of substrate 3,3’,5,5’-tetramethylbenzidine and kept in dark for 5–20 min.

CCRF-CEM = type: cell-based
SF-268 = type: cell-based
SNB-19 = type: cell-based
K-562 = type: cell-based
T-47D = type: cell-based
MDA-MB-468 = type: cell-based
SK-OV-3 = type: cell-based
leukaemia cell lines = test: NCI-60 five-dose, subpanel
From the text: (§1) Furthermore, the average sensitivity of all cell lines to the compound is termed as the full panel mean graph midpoints (MG-MID). The complete panel mean graph midpoints refers to the average sensitivity of all cell lines to the chemical (MG-MID). A measure of a compound’s selectivity for a given cell line is the ratio created by dividing the full panel mean graph midpoints (MG-MID) concentration by the individual subpanel MG-MID concentrations (obtained as the average sensitivity of all the cell lines in a given subpanel to the test compound).
(§2) Assessment of selectivity of a compound depends on the ratio obtained by dividing the full panel MID ^a by their individual subpanel MID ^b (µM) where MID^a is the average sensitivity of all cell lines towards the test agent (µM).

MALME-3M = type: cell-based
NCI-H226 = type: cell-based
HOP-62 = type: cell-based
UACC-62 = type: cell-based
[1] = tested on: Ovarian cancer cell lines; test: NCI-60 five-dose, subpanel
From the text: (§3) A measure of a compound’s selectivity for a given cell line is the ratio created by dividing the full panel mean graph midpoints (MG-MID) concentration by the individual subpanel MG-MID concentrations (obtained as the average sensitivity of all the cell lines in a given subpanel to the test compound).
as §2

melanoma cell lines = test: NCI-60 five-dose, subpanel
From the text: as §1, §2

HOP-92 = type: cell-based
LOX IMVI = type: cell-based
OVCAR-4 = type: cell-based
HL-60(TB) = type: cell-based
UACC-257 = type: cell-based
SK-MEL-28 = type: cell-based
COLO 205 = type: cell-based
HCT-15 = type: cell-based
M14 = type: cell-based
U251 = type: cell-based
Breast cancer cell lines = test: NCI-60 five-dose, subpanel
From the text: as §3, §2

NCI-H522 = type: cell-based
MDA-MB-435 = type: cell-based
RPMI-8226 = type: cell-based
MCF7 = type: cell-based
[2] = Homo sapiens, one dose 10^-5 M, 48 h
[3] = Homo sapiens, five-dose, read-out: LC50 (the source's name)
[4] = Homo sapiens, one dose 10^-5 M, 48 h, read-out: % growth
[5] = Homo sapiens, read-out: GI50 Subpanel MID^b

T1 sequence (O00329 whole entry): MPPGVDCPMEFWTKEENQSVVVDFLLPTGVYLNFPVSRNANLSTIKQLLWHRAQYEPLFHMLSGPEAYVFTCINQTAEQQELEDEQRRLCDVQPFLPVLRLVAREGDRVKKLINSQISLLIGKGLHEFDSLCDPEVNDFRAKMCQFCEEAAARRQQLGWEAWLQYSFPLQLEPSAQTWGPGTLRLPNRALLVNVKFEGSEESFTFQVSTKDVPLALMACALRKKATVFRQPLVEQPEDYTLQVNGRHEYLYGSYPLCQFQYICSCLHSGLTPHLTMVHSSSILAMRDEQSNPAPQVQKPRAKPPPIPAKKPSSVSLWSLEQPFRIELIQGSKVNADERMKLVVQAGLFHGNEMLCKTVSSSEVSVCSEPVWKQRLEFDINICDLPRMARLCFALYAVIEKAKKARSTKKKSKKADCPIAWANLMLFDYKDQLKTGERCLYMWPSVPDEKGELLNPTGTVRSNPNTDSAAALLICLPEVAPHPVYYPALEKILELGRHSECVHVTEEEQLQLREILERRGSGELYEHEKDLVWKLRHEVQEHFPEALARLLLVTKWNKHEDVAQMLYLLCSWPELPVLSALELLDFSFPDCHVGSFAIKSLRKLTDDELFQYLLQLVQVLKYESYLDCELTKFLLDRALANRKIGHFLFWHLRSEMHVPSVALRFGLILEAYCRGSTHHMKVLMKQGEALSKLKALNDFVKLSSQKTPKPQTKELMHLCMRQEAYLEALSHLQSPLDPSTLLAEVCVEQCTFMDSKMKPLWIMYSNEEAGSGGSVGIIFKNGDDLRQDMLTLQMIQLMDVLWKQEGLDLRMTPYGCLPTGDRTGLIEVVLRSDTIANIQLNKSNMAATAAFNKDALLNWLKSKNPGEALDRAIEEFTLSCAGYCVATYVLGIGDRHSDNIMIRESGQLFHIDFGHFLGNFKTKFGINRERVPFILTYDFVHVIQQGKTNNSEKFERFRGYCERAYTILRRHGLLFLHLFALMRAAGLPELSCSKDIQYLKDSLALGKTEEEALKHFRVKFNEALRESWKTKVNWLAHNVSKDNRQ
T1 sequence (P27986 whole entry partner): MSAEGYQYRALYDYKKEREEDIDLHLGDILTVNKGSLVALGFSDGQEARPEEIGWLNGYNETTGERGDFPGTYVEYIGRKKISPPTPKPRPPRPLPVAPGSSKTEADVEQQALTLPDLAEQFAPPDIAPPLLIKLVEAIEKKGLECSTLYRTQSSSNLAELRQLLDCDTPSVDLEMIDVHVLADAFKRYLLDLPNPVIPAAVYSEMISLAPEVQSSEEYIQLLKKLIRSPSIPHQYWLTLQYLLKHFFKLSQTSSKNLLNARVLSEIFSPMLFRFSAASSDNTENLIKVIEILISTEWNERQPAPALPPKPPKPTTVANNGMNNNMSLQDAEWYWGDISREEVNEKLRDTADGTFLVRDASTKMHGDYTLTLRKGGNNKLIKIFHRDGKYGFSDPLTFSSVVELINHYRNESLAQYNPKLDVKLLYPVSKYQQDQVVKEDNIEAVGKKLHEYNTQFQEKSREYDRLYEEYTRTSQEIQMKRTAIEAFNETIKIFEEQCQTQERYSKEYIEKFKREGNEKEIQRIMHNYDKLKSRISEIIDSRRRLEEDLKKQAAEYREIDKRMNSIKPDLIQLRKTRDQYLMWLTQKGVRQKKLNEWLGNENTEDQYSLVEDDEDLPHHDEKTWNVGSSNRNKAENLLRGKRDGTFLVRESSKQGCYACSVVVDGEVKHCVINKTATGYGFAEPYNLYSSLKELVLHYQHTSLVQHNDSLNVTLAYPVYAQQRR

## N#Cc1c(N)nc(S)nc1-c1ccc(Cl)cc1Cl [Compound 1c, 4-Amino-6–(2,4-dichlorophenyl)-2-mercaptopyrimidine-5-carbonitrile]
PI3Kδ
  IC50: 0.0034 ± 0.004 µM
CCRF-CEM; Homo sapiens, five-dose
  GI50: 0.3 µM
  LC50 (concentration killing 50% of tumour cells): > 100 µM
CCRF-CEM; [2]
  % cell growth at 10 µM: 7.65%
CCRF-CEM; five-dose
  TGI: 16.10 µM
SF-268; Homo sapiens, five-dose
  GI50: 18.1 µM
SF-268; [3]
  CC50: > 100 µM
SF-268; [4]
  activity at 10 µM: 51%
SF-268; five-dose
  TGI: 52.70 µM
SNB-19; Homo sapiens, five-dose
  GI50: 17 µM
SNB-19; [3]
  CC50: > 100 µM
SNB-19; [4]
  activity at 10 µM: 75.4%
SNB-19; five-dose
  TGI: 50.00 µM
K-562; Homo sapiens, K562, five-dose
  GI50: 0.14 µM
K-562; Homo sapiens, K562, five-dose, read-out: LC50 (the source's name)
  CC50: > 100 µM
K-562; Homo sapiens, K562, one dose 10^-5 M, 48 h
  % growth at 10 µM: 36.9%
K-562; five-dose
  TGI: >100 µM
T-47D; Homo sapiens, T47D, five-dose
  GI50: 9.87 µM
T-47D; Homo sapiens, T47D, five-dose, read-out: LC50 (the source's name)
  CC50: > 100 µM
T-47D; Homo sapiens, T47D, one dose 10^-5 M, 48 h, read-out: % growth
  activity at 10 µM: 54.5%
T-47D; five-dose
  TGI: 32.30 µM
MDA-MB-468; Homo sapiens, five-dose
  GI50: 11.4 µM
MDA-MB-468; [3]
  CC50: 55.7 µM
MDA-MB-468; [2]
  percent cell growth at 10 µM: 35%
MDA-MB-468; five-dose
  TGI: 25.20 µM
SK-OV-3; Homo sapiens, five-dose
  GI50: 26.3 µM
  LC50: > 100 µM
SK-OV-3; [2]
  % growth at 10 µM: 126%
SK-OV-3; five-dose
  TGI: 62.60 µM
Leukaemia cell lines; [5]
  GI50: 0.33 µM
Leukaemia cell lines; Homo sapiens, read-out: GI50 range, leukaemia cell lines
  GI50: 0.08 to 0.7 µM
Leukaemia cell lines; Homo sapiens, read-out: LC50, leukaemia
  CC50: > 100 µM
Leukaemia cell lines; leukaemia
  Selectivity ratio (full panel MID^a / subpanel MID^b, GI50 level): 39
MALME-3M; Homo sapiens, five-dose
  GI50: 15.3 µM
MALME-3M; [3]
  CC50: 69.7 µM
MALME-3M; [2]
  % growth at 10 µM: 4.96%
MALME-3M; five-dose
  TGI: 32.70 µM
NCI-H226; Homo sapiens, five-dose
  GI50: 16.5 µM
  LC50 (concentration killing 50% of tumour cells): 82 µM
NCI-H226; [2]
  % growth at 10 µM: 64.4%
NCI-H226; five-dose
  TGI: 36.80 µM
HOP-62; Homo sapiens, five-dose
  GI50: 18.2 µM
  LC50 (concentration killing 50% of cells): 88.6 µM
HOP-62; [2]
  % growth at 10 µM: 81.3%
HOP-62; five-dose
  TGI: 40.20 µM
UACC-62; Homo sapiens, five-dose
  GI50: 13.8 µM
UACC-62; [3]
  CC50: 57.6 µM
UACC-62; [2]
  % growth at 10 µM: 62.7%
UACC-62; five-dose
  TGI: 28.20 µM
[1]; [5]
  GI50: 19.2 µM
[1]; ovarian cancer
  Selectivity ratio (full panel MID^a / subpanel MID^b, GI50 level): 0.7
Melanoma cell lines; [5]
  GI50: 10.7 µM
Melanoma cell lines; melanoma
  Selectivity ratio (full panel MID^a / subpanel MID^b, GI50 level): 1.2
HOP-92; Homo sapiens, five-dose
  GI50: 19.8 µM
  LC50 (50% lethal concentration): > 100 µM
HOP-92; [2]
  % growth at 10 µM: 105%
HOP-92; five-dose
  TGI: 56.40 µM
LOX IMVI; Homo sapiens, five-dose
  GI50: 1.1 µM
LOX IMVI; [3]
  CC50: 40 µM
LOX IMVI; [4]
  activity at 10 µM: -49.2%
LOX IMVI; five-dose
  TGI: 15.10 µM
LOX IMVI; one dose 10^-5 M, 48 h
  % growth: -49.21%
OVCAR-4; Homo sapiens, five-dose
  GI50: 32 µM
OVCAR-4; [3]
  CC50: > 100 µM
OVCAR-4; [2]
  % growth at 10 µM: 81.2%
OVCAR-4; five-dose
  TGI: >100 µM
HL-60(TB); Homo sapiens, five-dose
  GI50: 0.08 µM
HL-60(TB); [3]
  CC50: > 100 µM
HL-60(TB); [2]
  % growth at 10 µM: 5.3%
HL-60(TB); five-dose
  TGI: 1.82 µM
UACC-257; Homo sapiens, five-dose
  GI50: 14.7 µM
UACC-257; [3]
  CC50: 67.2 µM
UACC-257; [2]
  percent cell growth at 10 µM: 77.7%
UACC-257; five-dose
  TGI: 31.50 µM
SK-MEL-28; Homo sapiens, five-dose
  GI50: 15.2 µM
SK-MEL-28; [3]
  CC50: 60.7 µM
SK-MEL-28; [2]
  % cell growth at 10 µM: 57.7%
SK-MEL-28; five-dose
  TGI: 30.40 µM
COLO 205; Homo sapiens, five-dose
  GI50: 19 µM
COLO 205; [3]
  CC50: 70 µM
COLO 205; [2]
  % growth at 10 µM: 80.5%
COLO 205; five-dose
  TGI: 36.50 µM
HCT-15; Homo sapiens, five-dose
  GI50: 0.08 µM
HCT-15; [3]
  CC50: 97.9 µM
HCT-15; [4]
  activity at 10 µM: 10.9%
HCT-15; five-dose
  TGI: 17.90 µM
M14; Homo sapiens, five-dose
  GI50: 2.42 µM
M14; [3]
  CC50: 93.7 µM
M14; [2]
  % growth at 10 µM: 49.8%
M14; five-dose
  TGI: 28.00 µM
U251; Homo sapiens, U-251, five-dose
  GI50: 13.4 µM
U251; Homo sapiens, U-251, five-dose, read-out: LC50 (the source's name)
  CC50: 68.9 µM
U251; Homo sapiens, U-251, one dose 10^-5 M, 48 h
  % growth at 10 µM: 38.8%
U251; five-dose
  TGI: 30.40 µM
Breast cancer cell lines; [5]
  GI50: 11.4 µM
Breast cancer cell lines; breast cancer
  Selectivity ratio (full panel MID^a / subpanel MID^b, GI50 level): 1.13
NCI-H522; Homo sapiens, five-dose
  GI50: 15.4 µM
NCI-H522; [3]
  CC50: 61.3 µM
NCI-H522; [2]
  % growth at 10 µM: 49.4%
NCI-H522; five-dose
  TGI: 30.70 µM
MDA-MB-435; Homo sapiens, five-dose
  GI50: 10.5 µM
MDA-MB-435; [3]
  CC50: > 100 µM
MDA-MB-435; [4]
  activity at 10 µM: 25.3%
MDA-MB-435; five-dose
  TGI: 38.00 µM
RPMI-8226; Homo sapiens, five-dose
  GI50: 0.6 µM
  LC50: > 100 µM
RPMI-8226; [2]
  % growth at 10 µM: 9.51%
RPMI-8226; five-dose
  TGI: 27.50 µM
MCF7; Homo sapiens, five-dose
  GI50: 0.12 µM
MCF7; [3]
  CC50: > 100 µM
MCF7; [4]
  activity at 10 µM: 31.6%
MCF7; five-dose
  TGI: 31.10 µM

Source: article PMC10866072, “Design, synthesis, molecular modelling and biological evaluation of novel 6-amino-5-cyano-2-thiopyrimidine derivatives as potent anticancer agents against leukemia and apoptotic inducers” (Journal of Enzyme Inhibition and Medicinal Chemistry, 2024)
